Data from US11007270B2, “Polymer-semaxanib moiety conjugates” (Nektar Therapeutics, priority 2010, dated 2021).

Assays:
c-Kit = c-Kit (Homo sapiens, UniProt P10721); assay: c-Kit tyrosine kinase inhibition, Caliper screening (fluorescent substrate phosphorylation, electrophoretic separation); assay type: biochemical
RET = RET (Homo sapiens, UniProt P07949); assay: RET kinase inhibition, Caliper screening (fluorescent substrate phosphorylation, electrophoretic separation)
VEGFR-2 = VEGFR-2 (Homo sapiens, UniProt P35968); assay: VEGFR-2 kinase inhibition, Caliper screening (fluorescent substrate phosphorylation, electrophoretic separation)
[1] = concentration 1.0E−05 (unit not given)
[2] = concentration 1.0E−06 (unit not given)
[3] = concentration 1.0E−07 (unit not given)
[4] = concentration 1.0E−08 (unit not given)
[5] = concentration 1.0E−09 (unit not given)
[6] = concentration 1.0E−10 (unit not given)
[7] = concentration 3.0E−05 (unit not given)
[8] = concentration 3.0E−06 (unit not given)
[9] = concentration 3.0E−07 (unit not given)
[10] = concentration 3.0E−08 (unit not given)
[11] = concentration 3.0E−09 (unit not given)
[12] = concentration 3.0E−10 (unit not given)
[13] = fold of IC50 relative to sunitinib

Sequence of c-Kit (P10721 26-976): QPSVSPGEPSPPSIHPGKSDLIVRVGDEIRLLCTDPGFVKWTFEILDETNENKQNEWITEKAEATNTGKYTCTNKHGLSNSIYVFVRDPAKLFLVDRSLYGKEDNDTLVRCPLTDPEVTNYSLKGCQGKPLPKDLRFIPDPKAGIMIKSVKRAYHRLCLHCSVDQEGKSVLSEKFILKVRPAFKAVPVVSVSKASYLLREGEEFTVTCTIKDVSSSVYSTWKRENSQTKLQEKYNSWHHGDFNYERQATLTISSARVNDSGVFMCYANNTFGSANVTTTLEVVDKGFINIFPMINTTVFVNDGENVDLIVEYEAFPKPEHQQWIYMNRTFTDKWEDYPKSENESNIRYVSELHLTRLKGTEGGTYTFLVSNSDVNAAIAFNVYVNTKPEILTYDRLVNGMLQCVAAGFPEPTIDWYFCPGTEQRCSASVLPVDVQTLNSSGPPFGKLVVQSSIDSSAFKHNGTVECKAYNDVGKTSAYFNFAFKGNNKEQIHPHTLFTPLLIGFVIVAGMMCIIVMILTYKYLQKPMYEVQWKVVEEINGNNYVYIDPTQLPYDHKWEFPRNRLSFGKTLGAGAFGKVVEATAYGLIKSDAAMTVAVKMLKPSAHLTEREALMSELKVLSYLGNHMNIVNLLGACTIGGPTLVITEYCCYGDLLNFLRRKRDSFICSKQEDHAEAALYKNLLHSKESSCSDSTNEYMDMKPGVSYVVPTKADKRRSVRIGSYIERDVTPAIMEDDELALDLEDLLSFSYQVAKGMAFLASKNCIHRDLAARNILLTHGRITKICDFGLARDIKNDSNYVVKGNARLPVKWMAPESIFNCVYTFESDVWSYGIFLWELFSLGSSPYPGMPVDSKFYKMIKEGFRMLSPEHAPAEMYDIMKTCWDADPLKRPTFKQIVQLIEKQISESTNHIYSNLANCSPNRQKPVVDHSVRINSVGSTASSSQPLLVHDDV
Sequence of VEGFR-2 (P35968 20-1356, species assumed): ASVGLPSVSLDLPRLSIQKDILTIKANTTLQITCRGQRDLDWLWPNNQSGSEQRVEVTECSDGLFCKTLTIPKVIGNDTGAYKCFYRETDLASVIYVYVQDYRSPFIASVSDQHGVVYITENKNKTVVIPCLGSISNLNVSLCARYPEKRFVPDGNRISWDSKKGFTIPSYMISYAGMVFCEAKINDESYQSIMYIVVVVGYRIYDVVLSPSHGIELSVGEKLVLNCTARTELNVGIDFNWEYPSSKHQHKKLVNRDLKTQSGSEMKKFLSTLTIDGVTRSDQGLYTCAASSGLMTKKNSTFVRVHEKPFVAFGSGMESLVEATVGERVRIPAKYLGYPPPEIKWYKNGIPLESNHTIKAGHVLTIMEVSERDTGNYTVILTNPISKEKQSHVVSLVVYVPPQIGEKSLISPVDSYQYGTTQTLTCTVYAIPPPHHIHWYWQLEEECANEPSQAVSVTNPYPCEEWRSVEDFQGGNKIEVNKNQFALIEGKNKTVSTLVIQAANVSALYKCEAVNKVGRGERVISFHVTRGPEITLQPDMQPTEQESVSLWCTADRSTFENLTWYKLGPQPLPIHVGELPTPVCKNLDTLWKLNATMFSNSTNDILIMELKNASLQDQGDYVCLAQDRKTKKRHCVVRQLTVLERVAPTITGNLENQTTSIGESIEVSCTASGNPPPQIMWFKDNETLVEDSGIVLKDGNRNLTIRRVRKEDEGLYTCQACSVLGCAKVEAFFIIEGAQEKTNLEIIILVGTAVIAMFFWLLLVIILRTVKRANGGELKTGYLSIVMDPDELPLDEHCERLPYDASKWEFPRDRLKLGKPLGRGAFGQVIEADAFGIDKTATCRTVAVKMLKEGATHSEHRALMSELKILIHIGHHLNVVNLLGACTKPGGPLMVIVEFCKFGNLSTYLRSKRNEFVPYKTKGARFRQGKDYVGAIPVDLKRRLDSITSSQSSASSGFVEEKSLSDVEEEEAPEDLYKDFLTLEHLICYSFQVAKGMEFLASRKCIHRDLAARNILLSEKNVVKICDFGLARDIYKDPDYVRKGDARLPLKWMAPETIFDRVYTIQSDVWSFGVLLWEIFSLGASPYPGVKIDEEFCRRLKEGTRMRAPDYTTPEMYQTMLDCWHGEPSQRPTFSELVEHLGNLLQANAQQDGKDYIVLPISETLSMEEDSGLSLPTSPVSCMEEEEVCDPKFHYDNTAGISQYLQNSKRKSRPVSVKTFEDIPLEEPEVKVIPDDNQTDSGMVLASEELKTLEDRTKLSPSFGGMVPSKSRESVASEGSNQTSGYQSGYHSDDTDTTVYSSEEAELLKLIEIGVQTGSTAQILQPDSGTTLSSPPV
Sequence of RET (P07949 29-1114, species assumed): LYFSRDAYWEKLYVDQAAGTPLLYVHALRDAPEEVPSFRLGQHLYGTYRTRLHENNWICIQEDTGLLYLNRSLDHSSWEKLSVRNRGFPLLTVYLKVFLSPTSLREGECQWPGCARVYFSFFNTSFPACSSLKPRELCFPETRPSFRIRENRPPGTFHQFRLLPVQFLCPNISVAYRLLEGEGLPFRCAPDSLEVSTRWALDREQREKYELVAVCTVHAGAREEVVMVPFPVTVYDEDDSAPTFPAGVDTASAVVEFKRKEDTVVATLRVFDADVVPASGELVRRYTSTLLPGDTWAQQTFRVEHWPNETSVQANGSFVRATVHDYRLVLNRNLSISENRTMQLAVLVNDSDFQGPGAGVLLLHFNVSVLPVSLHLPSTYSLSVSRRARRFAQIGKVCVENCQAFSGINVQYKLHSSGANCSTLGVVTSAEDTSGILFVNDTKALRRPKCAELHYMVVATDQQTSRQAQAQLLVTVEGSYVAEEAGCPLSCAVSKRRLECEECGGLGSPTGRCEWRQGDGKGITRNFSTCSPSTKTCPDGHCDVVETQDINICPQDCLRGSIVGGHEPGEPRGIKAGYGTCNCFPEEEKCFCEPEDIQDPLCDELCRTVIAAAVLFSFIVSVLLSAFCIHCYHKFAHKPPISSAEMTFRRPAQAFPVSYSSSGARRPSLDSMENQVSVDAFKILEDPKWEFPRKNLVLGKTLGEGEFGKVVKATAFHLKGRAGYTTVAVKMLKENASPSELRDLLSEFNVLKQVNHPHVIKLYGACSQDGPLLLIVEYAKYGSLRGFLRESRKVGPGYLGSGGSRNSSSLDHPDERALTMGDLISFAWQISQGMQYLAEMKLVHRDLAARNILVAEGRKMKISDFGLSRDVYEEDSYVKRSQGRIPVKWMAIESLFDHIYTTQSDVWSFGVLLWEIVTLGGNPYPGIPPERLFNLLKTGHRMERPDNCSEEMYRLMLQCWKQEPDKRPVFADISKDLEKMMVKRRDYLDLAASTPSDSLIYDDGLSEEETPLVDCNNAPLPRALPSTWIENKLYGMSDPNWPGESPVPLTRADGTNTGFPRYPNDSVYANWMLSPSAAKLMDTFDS

Structure (SMILES): COCCOCCOCCOCCOCCOCCOCCOCCOCCNC(=O)c1c(C)[nH]c(/C=C2\C(=O)Nc3ccc(F)cc32)c1C [mPEG9-semaxanib, (Z)-5-((5-fluoro-2-oxoindolin-3-ylidene)methyl)-2,4-dimethyl-1H-pyrrole-3-mPEG8-amide]
- IC50 (c-Kit; averages of replicate wells): 0.39 µM
- c-Kit AVG % Activity at Specific Concentration (c-Kit; [1]): 0%
- c-Kit AVG % Activity at Specific Concentration (c-Kit; [2]): 16%
- c-Kit AVG % Activity at Specific Concentration (c-Kit; [3]): 90%
- c-Kit AVG % Activity at Specific Concentration (c-Kit; [4]): 102%
- c-Kit AVG % Activity at Specific Concentration (c-Kit; [5]): 105%
- c-Kit AVG % Activity at Specific Concentration (c-Kit; [6]): 95%
- c-Kit AVG % Activity at Specific Concentration (c-Kit; [7]): −1%
- c-Kit AVG % Activity at Specific Concentration (c-Kit; [8]): 2%
- c-Kit AVG % Activity at Specific Concentration (c-Kit; [9]): 60%
- c-Kit AVG % Activity at Specific Concentration (c-Kit; [10]): 100%
- c-Kit AVG % Activity at Specific Concentration (c-Kit; [11]): 105%
- c-Kit AVG % Activity at Specific Concentration (c-Kit; [12]): 102%
- c-Kit Fold (c-Kit; [13]): 5.30
- IC50 (RET): 0.87 µM
- RET AVG % Activity at Specific Concentration (RET; [1]): 5%
- RET AVG % Activity at Specific Concentration (RET; [2]): 49%
- RET AVG % Activity at Specific Concentration (RET; [3]): 90%
- RET AVG % Activity at Specific Concentration (RET; [4]): 105%
- RET AVG % Activity at Specific Concentration (RET; [5]): 104%
- RET AVG % Activity at Specific Concentration (RET; [6]): 100%
- RET AVG % Activity at Specific Concentration (RET; [7]): 0%
- RET AVG % Activity at Specific Concentration (RET; [8]): 21%
- RET AVG % Activity at Specific Concentration (RET; [9]): 74%
- RET AVG % Activity at Specific Concentration (RET; [10]): 96%
- RET AVG % Activity at Specific Concentration (RET; [11]): 101%
- RET AVG % Activity at Specific Concentration (RET; [12]): 97%
- RET Fold (RET; [13]): 20.23
- IC50 (VEGFR-2): 0.3 µM
- VEGFR-2 AVG % Activity at Specific Concentration (VEGFR-2; [1]): 1%
- VEGFR-2 AVG % Activity at Specific Concentration (VEGFR-2; [2]): 20%
- VEGFR-2 AVG % Activity at Specific Concentration (VEGFR-2; [3]): 61%
- VEGFR-2 AVG % Activity at Specific Concentration (VEGFR-2; [4]): 77%
- VEGFR-2 AVG % Activity at Specific Concentration (VEGFR-2; [5]): 84%
- VEGFR-2 AVG % Activity at Specific Concentration (VEGFR-2; [6]): 89%
- VEGFR-2 AVG % Activity at Specific Concentration (VEGFR-2; [7]): −1%
- VEGFR-2 AVG % Activity at Specific Concentration (VEGFR-2; [8]): 8%
- VEGFR-2 AVG % Activity at Specific Concentration (VEGFR-2; [9]): 46%
- VEGFR-2 AVG % Activity at Specific Concentration (VEGFR-2; [10]): 71%
- VEGFR-2 AVG % Activity at Specific Concentration (VEGFR-2; [11]): 84%
- VEGFR-2 AVG % Activity at Specific Concentration (VEGFR-2; [12]): 84%
- VEGFR-2 Fold (VEGFR-2; [13]): 6.12
